Source: patent US9113629B2, “4-amino-6-(4-substituted-phenyl)-picolinates and 6-amino-2-(4-substituted-phenyl)-pyrimidine-4-carboxylates and their use as herbicides” (DOW AGROSCIENCES LLC, priority 2013, dated 2015)

Test system: not given
Assay: not given
Settings: not given

Q: For `COC(=O)c1nc(-c2ccc(I)cc2)c(C)c(N)c1Cl` [Compound 136, methyl 4-amino-3-chloro-6-(4-iodophenyl)-5-methylpicolinate], which melting point is on record?
A: 115 to 118 °C

Test system: Key Broadleaf Weed and Crop Species
Assay: Post-emergent Test II herbicidal activity (Table 5)
Type: in vivo
Settings: post-emergence, 336 h; ABUTH: velvetleaf (Abutilon theophrasti); 70 g ai/ha; post-emergent; 14 days after application; read-out: Visual Growth Reduction (%) 14 Days After Application ABUTH
How it was run: (§1)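 Test species were raised 7–21 d under greenhouse conditions until reaching the first or second true leaf, sprayed with formulated compound at 187 L/ha, and kept subirrigated to avoid wash-off. Fourteen days later, damage was rated visually on a 0–100% scale against untreated plants.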

Q: For `COC(=O)c1nc(-c2ccc(I)cc2)c(C)c(N)c1Cl` [Compound 136, methyl 4-amino-3-chloro-6-(4-iodophenyl)-5-methylpicolinate], which pest or weed control at 70 g/ha is on record?
A: 95 to 100%

Same assay, conditions: post-emergence, 336 h; ABUTH: velvetleaf (Abutilon theophrasti); 140 g ai/ha; post-emergent; 14 days after application; read-out: Visual Growth Reduction (%) 14 Days After Application ABUTH

Q: Which pest or weed control at 140 g/ha does the source give for `COC(=O)c1nc(-c2ccc(I)cc2)c(C)c(N)c1Cl` [Compound 136, methyl 4-amino-3-chloro-6-(4-iodophenyl)-5-methylpicolinate] here?
A: 95 to 100%

Same assay, conditions: post-emergence, 336 h; AMARE: redroot pigweed (Amaranthus retroflexus); 70 g ai/ha; post-emergent; 14 days after application; read-out: Visual Growth Reduction (%) 14 Days After Application AMARE

Q: For `COC(=O)c1nc(-c2ccc(I)cc2)c(C)c(N)c1Cl` [Compound 136, methyl 4-amino-3-chloro-6-(4-iodophenyl)-5-methylpicolinate], which pest or weed control at 70 g/ha is on record?
A: 85 to 94%

Same assay, conditions: post-emergence, 336 h; AMARE: redroot pigweed (Amaranthus retroflexus); 140 g ai/ha; post-emergent; 14 days after application; read-out: Visual Growth Reduction (%) 14 Days After Application AMARE

Q: Which pest or weed control at 140 g/ha does the source give for `COC(=O)c1nc(-c2ccc(I)cc2)c(C)c(N)c1Cl` [Compound 136, methyl 4-amino-3-chloro-6-(4-iodophenyl)-5-methylpicolinate] here?
A: 85 to 94%

Same assay, conditions: post-emergence, 336 h; BRSNN: oilseed-rape, canola (Brassica napus); 70 g ai/ha; post-emergent; 14 days after application; read-out: Visual Growth Reduction (%) 14 Days After Application BRSNN

Q: For `COC(=O)c1nc(-c2ccc(I)cc2)c(C)c(N)c1Cl` [Compound 136, methyl 4-amino-3-chloro-6-(4-iodophenyl)-5-methylpicolinate], which pest or weed control at 70 g/ha is on record?
A: 85 to 94%

Same assay, conditions: post-emergence, 336 h; BRSNN: oilseed-rape, canola (Brassica napus); 140 g ai/ha; post-emergent; 14 days after application; read-out: Visual Growth Reduction (%) 14 Days After Application BRSNN

Q: With `COC(=O)c1nc(-c2ccc(I)cc2)c(C)c(N)c1Cl` [Compound 136, methyl 4-amino-3-chloro-6-(4-iodophenyl)-5-methylpicolinate] as the molecule, how does the pest or weed control at 140 g/ha read?
A: 85 to 94%

Same assay, conditions: post-emergence, 336 h; CHEAL: lambsquarters (Chenopodium album); 70 g ai/ha; post-emergent; 14 days after application; read-out: Visual Growth Reduction (%) 14 Days After Application CHEAL

Q: With `COC(=O)c1nc(-c2ccc(I)cc2)c(C)c(N)c1Cl` [Compound 136, methyl 4-amino-3-chloro-6-(4-iodophenyl)-5-methylpicolinate] as the molecule, how does the pest or weed control at 70 g/ha read?
A: 95 to 100%

Same assay, conditions: post-emergence, 336 h; CHEAL: lambsquarters (Chenopodium album); 140 g ai/ha; post-emergent; 14 days after application; read-out: Visual Growth Reduction (%) 14 Days After Application CHEAL

Q: Which pest or weed control at 140 g/ha does the source give for `COC(=O)c1nc(-c2ccc(I)cc2)c(C)c(N)c1Cl` [Compound 136, methyl 4-amino-3-chloro-6-(4-iodophenyl)-5-methylpicolinate] here?
A: 95 to 100%

Same assay, conditions: post-emergence, 336 h; EPHHL: wild poinsettia (Euphorbia heterophylla); 70 g ai/ha; post-emergent; 14 days after application; read-out: Visual Growth Reduction (%) 14 Days After Application EPHHL

Q: With `COC(=O)c1nc(-c2ccc(I)cc2)c(C)c(N)c1Cl` [Compound 136, methyl 4-amino-3-chloro-6-(4-iodophenyl)-5-methylpicolinate] as the molecule, how does the pest or weed control at 70 g/ha read?
A: 0 to 29%

Same assay, conditions: post-emergence, 336 h; EPHHL: wild poinsettia (Euphorbia heterophylla); 140 g ai/ha; post-emergent; 14 days after application; read-out: Visual Growth Reduction (%) 14 Days After Application EPHHL

Q: For `COC(=O)c1nc(-c2ccc(I)cc2)c(C)c(N)c1Cl` [Compound 136, methyl 4-amino-3-chloro-6-(4-iodophenyl)-5-methylpicolinate], which pest or weed control at 140 g/ha is on record?
A: 0 to 29%

Same assay, conditions: post-emergence, 336 h; HELAN: sunflower (Helianthus annuus); 70 g ai/ha; post-emergent; 14 days after application; read-out: Visual Growth Reduction (%) 14 Days After Application HELAN

Q: Which pest or weed control at 70 g/ha does the source give for `COC(=O)c1nc(-c2ccc(I)cc2)c(C)c(N)c1Cl` [Compound 136, methyl 4-amino-3-chloro-6-(4-iodophenyl)-5-methylpicolinate] here?
A: 95 to 100%

Same assay, conditions: post-emergence, 336 h; HELAN: sunflower (Helianthus annuus); 140 g ai/ha; post-emergent; 14 days after application; read-out: Visual Growth Reduction (%) 14 Days After Application HELAN

Q: With `COC(=O)c1nc(-c2ccc(I)cc2)c(C)c(N)c1Cl` [Compound 136, methyl 4-amino-3-chloro-6-(4-iodophenyl)-5-methylpicolinate] as the molecule, how does the pest or weed control at 140 g/ha read?
A: 95 to 100%

Same assay, conditions: post-emergence, 336 h; VIOTR: wild pansy (Viola tricolor); 70 g ai/ha; post-emergent; 14 days after application; read-out: Visual Growth Reduction (%) 14 Days After Application VIOTR

Q: Which pest or weed control at 70 g/ha does the source give for `COC(=O)c1nc(-c2ccc(I)cc2)c(C)c(N)c1Cl` [Compound 136, methyl 4-amino-3-chloro-6-(4-iodophenyl)-5-methylpicolinate] here?
A: 0 to 29%

Same assay, conditions: post-emergence, 336 h; VIOTR: wild pansy (Viola tricolor); 140 g ai/ha; post-emergent; 14 days after application; read-out: Visual Growth Reduction (%) 14 Days After Application VIOTR

Q: Which pest or weed control at 140 g/ha does the source give for `COC(=O)c1nc(-c2ccc(I)cc2)c(C)c(N)c1Cl` [Compound 136, methyl 4-amino-3-chloro-6-(4-iodophenyl)-5-methylpicolinate] here?
A: 0 to 29%

Test system: Key Grass and Sedge Weeds as well as Grass Crops
Assay: Post-emergent Test II herbicidal activity (Table 6)
Type: in vivo
Settings: Triticum aestivum, post-emergence, 336 h, TRZSS (wheat), application rate 70 g ai/ha, read-out: Visual Growth Reduction (%) 14 Days After Application, TRZSS
How it was run: as §1

Q: With `COC(=O)c1nc(-c2ccc(I)cc2)c(C)c(N)c1Cl` [Compound 136, methyl 4-amino-3-chloro-6-(4-iodophenyl)-5-methylpicolinate] as the molecule, how does the pest or weed control at 70 g/ha read?
A: 45 to 59%

Same assay, conditions: Triticum aestivum, post-emergence, 336 h, TRZSS (wheat), application rate 140 g ai/ha, read-out: Visual Growth Reduction (%) 14 Days After Application, TRZSS

Q: With `COC(=O)c1nc(-c2ccc(I)cc2)c(C)c(N)c1Cl` [Compound 136, methyl 4-amino-3-chloro-6-(4-iodophenyl)-5-methylpicolinate] as the molecule, how does the pest or weed control at 140 g/ha read?
A: 45 to 59%

Same assay, conditions: post-emergence, 336 h, CYPES: yellow nutsedge (Cyperus esculentus), application rate 70 g ai/ha, read-out: Visual Growth Reduction (%) 14 Days After Application, CYPES

Q: With `COC(=O)c1nc(-c2ccc(I)cc2)c(C)c(N)c1Cl` [Compound 136, methyl 4-amino-3-chloro-6-(4-iodophenyl)-5-methylpicolinate] as the molecule, how does the pest or weed control at 70 g/ha read?
A: 95 to 100%

Same assay, conditions: post-emergence, 336 h, CYPES: yellow nutsedge (Cyperus esculentus), application rate 140 g ai/ha, read-out: Visual Growth Reduction (%) 14 Days After Application, CYPES

Q: With `COC(=O)c1nc(-c2ccc(I)cc2)c(C)c(N)c1Cl` [Compound 136, methyl 4-amino-3-chloro-6-(4-iodophenyl)-5-methylpicolinate] as the molecule, how does the pest or weed control at 140 g/ha read?
A: 95 to 100%

Same assay, conditions: post-emergence, 336 h, DIGSA: crabgrass (Digitaria sanguinalis), application rate 70 g ai/ha, read-out: Visual Growth Reduction (%) 14 Days After Application, DIGSA

Q: Which pest or weed control at 70 g/ha does the source give for `COC(=O)c1nc(-c2ccc(I)cc2)c(C)c(N)c1Cl` [Compound 136, methyl 4-amino-3-chloro-6-(4-iodophenyl)-5-methylpicolinate] here?
A: 60 to 74%

Same assay, conditions: post-emergence, 336 h, DIGSA: crabgrass (Digitaria sanguinalis), application rate 140 g ai/ha, read-out: Visual Growth Reduction (%) 14 Days After Application, DIGSA

Q: Which pest or weed control at 140 g/ha does the source give for `COC(=O)c1nc(-c2ccc(I)cc2)c(C)c(N)c1Cl` [Compound 136, methyl 4-amino-3-chloro-6-(4-iodophenyl)-5-methylpicolinate] here?
A: 60 to 74%

Same assay, conditions: post-emergence, 336 h, ECHCG: barnyardgrass (Echinochloa crus-galli), application rate 70 g ai/ha, read-out: Visual Growth Reduction (%) 14 Days After Application, ECHCG

Q: With `COC(=O)c1nc(-c2ccc(I)cc2)c(C)c(N)c1Cl` [Compound 136, methyl 4-amino-3-chloro-6-(4-iodophenyl)-5-methylpicolinate] as the molecule, how does the pest or weed control at 70 g/ha read?
A: 0 to 29%

Same assay, conditions: post-emergence, 336 h, ECHCG: barnyardgrass (Echinochloa crus-galli), application rate 140 g ai/ha, read-out: Visual Growth Reduction (%) 14 Days After Application, ECHCG

Q: For `COC(=O)c1nc(-c2ccc(I)cc2)c(C)c(N)c1Cl` [Compound 136, methyl 4-amino-3-chloro-6-(4-iodophenyl)-5-methylpicolinate], which pest or weed control at 140 g/ha is on record?
A: 0 to 29%

Same assay, conditions: post-emergence, 336 h, ORYSA: rice (Oryza sativa), application rate 70 g ai/ha, read-out: Visual Growth Reduction (%) 14 Days After Application, ORYSA

Q: Which pest or weed control at 70 g/ha does the source give for `COC(=O)c1nc(-c2ccc(I)cc2)c(C)c(N)c1Cl` [Compound 136, methyl 4-amino-3-chloro-6-(4-iodophenyl)-5-methylpicolinate] here?
A: 0 to 29%

Same assay, conditions: post-emergence, 336 h, ORYSA: rice (Oryza sativa), application rate 140 g ai/ha, read-out: Visual Growth Reduction (%) 14 Days After Application, ORYSA

Q: Which pest or weed control at 140 g/ha does the source give for `COC(=O)c1nc(-c2ccc(I)cc2)c(C)c(N)c1Cl` [Compound 136, methyl 4-amino-3-chloro-6-(4-iodophenyl)-5-methylpicolinate] here?
A: 0 to 29%

Same assay, conditions: post-emergence, 336 h, SETFA: giant foxtail (Setaria faberi), application rate 70 g ai/ha, read-out: Visual Growth Reduction (%) 14 Days After Application, SETFA

Q: Which pest or weed control at 70 g/ha does the source give for `COC(=O)c1nc(-c2ccc(I)cc2)c(C)c(N)c1Cl` [Compound 136, methyl 4-amino-3-chloro-6-(4-iodophenyl)-5-methylpicolinate] here?
A: 30 to 44%

Same assay, conditions: post-emergence, 336 h, SETFA: giant foxtail (Setaria faberi), application rate 140 g ai/ha, read-out: Visual Growth Reduction (%) 14 Days After Application, SETFA

Q: For `COC(=O)c1nc(-c2ccc(I)cc2)c(C)c(N)c1Cl` [Compound 136, methyl 4-amino-3-chloro-6-(4-iodophenyl)-5-methylpicolinate], which pest or weed control at 140 g/ha is on record?
A: 45 to 59%

Same assay, conditions: post-emergence, 336 h, SORVU: grain sorghum (Sorghum vulgare), application rate 70 g ai/ha, read-out: Visual Growth Reduction (%) 14 Days After Application, SORVU

Q: For `COC(=O)c1nc(-c2ccc(I)cc2)c(C)c(N)c1Cl` [Compound 136, methyl 4-amino-3-chloro-6-(4-iodophenyl)-5-methylpicolinate], which pest or weed control at 70 g/ha is on record?
A: 60 to 74%

Same assay, conditions: post-emergence, 336 h, SORVU: grain sorghum (Sorghum vulgare), application rate 140 g ai/ha, read-out: Visual Growth Reduction (%) 14 Days After Application, SORVU

Q: Which pest or weed control at 140 g/ha does the source give for `COC(=O)c1nc(-c2ccc(I)cc2)c(C)c(N)c1Cl` [Compound 136, methyl 4-amino-3-chloro-6-(4-iodophenyl)-5-methylpicolinate] here?
A: 60 to 74%

Same assay, conditions: post-emergence, 336 h, ZEAMX: maize, corn (Zea mays), application rate 70 g ai/ha, read-out: Visual Growth Reduction (%) 14 Days After Application, ZEAMX

Q: For `COC(=O)c1nc(-c2ccc(I)cc2)c(C)c(N)c1Cl` [Compound 136, methyl 4-amino-3-chloro-6-(4-iodophenyl)-5-methylpicolinate], which pest or weed control at 70 g/ha is on record?
A: 60 to 74%

Same assay, conditions: post-emergence, 336 h, ZEAMX: maize, corn (Zea mays), application rate 140 g ai/ha, read-out: Visual Growth Reduction (%) 14 Days After Application, ZEAMX

Q: With `COC(=O)c1nc(-c2ccc(I)cc2)c(C)c(N)c1Cl` [Compound 136, methyl 4-amino-3-chloro-6-(4-iodophenyl)-5-methylpicolinate] as the molecule, how does the pest or weed control at 140 g/ha read?
A: 75 to 84%
